Data on 24 compounds can be found in PubChem BioAssay (NCI).

What all share (assay): NCI tumour cell line growth inhibition, 48 h
Test [1] has as its system NCI-H460 lung.
In test [2] the test system is SF-268 CNS.
Test [3] relates to SK-MEL-2 melanoma.
Test [4] deals with RPMI-8226 leukemia.
In test [5] the test system is CCRF-CEM leukemia.
For test [6], the system named is 786-0 renal.
The test system of test [7] is MALME-3M melanoma.
Test [8] deals with LOX IMVI melanoma.
In test [9] the test system is HT29 colon.
For test [10], the system named is HCT-116 colon.

SMILES strings stand for the structures. Where “and” joins values, the source holds several entries; their conditions need not be identical. Identical values can stand only once.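 Protocol summary: plate cells (96-well), add compound at 5 concentrations, incubate 48 h, interpolate endpoints linearly. GI50 is the concentration that inhibits growth by half. TGI: total growth inhibition.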 A value given as a limit tells only on which side of the number the result lay.

As for `O=S(O)CCCCSSCC(O)C(O)CSSCCCCS(=O)O` (stereo not given), the TGI was > 100 µM in test [1]; 32.1 µM and 57.9 µM in test [2]; 37.4 µM and 49.8 µM in [3]; 46.4 µM and 46.1 µM in test [4]; 31.9 µM and 26.2 µM in [5]; > 100 µM in test [6]. Further, the TGI was 25.8 µM and 35.9 µM in [7]; 38.1 µM and 72.7 µM in test [8]; 24.4 µM and 27 µM in test [9].

Take `C[C@H]1c2cccc(O)c2C(O)=C2C(=O)[C@]3(O)C(O)=C(C(N)=O)C(=O)[C@@H](N(C)C)[C@@H]3[C@@H](O)[C@@H]21`: the GI50 is 2960 nM in test [1]; 3330 nM in test [2]; 2890 nM in test [10]; 3130 nM in [3]; 3260 nM in [6]; 2760 nM in [7]. For the same compound, the GI50 was 2750 nM in [8] and 3430 nM in test [9]. The TGI came out at 10.2 µM in test [1]; 12.1 µM in test [2]; 10.5 µM in test [10]; 8.99 µM in test [3]; 12.5 µM in test [6]; 8.57 µM in [7]. In addition, the values for the TGI in test [8] and in test [9] were 10 µM and 11.9 µM, respectively.

In the case of `O=C(O/N=C1/CCCC/C1=C\c1ccccc1)c1ccccc1`, the TGI in test [2], in test [10], in test [3], in [4], in test [5] and in test [6] was > 100 µM in each case. The TGI is > 100 µM in test [7], 88.8 µM in test [8] and > 100 µM in test [9].

As for `O=C1c2ccccc2C(=O)C1(Cl)C1(S(=O)(=O)O)c2ccccc2-c2ccccc21`, the TGI in test [1], in test [2], in [10], in test [4], in test [5] and in test [6] was > 100 µM in each case. The TGI in test [7], in test [8] and in test [9] was > 100 µM in each case.

Regarding `CC1=CC(/C=C(\C)CCCc2ccoc2)C2(OC(=O)C(C)=C2O)[C@H]2C1CC[C@@H]2C` (stereo not given in full), the TGI was found to be 38.1 µM in [10]; 59.6 µM in test [4]; 58.6 µM in test [5]; 32.2 µM in [6]; 57.1 µM in test [7]; 59.3 µM in test [8]. In addition, the TGI in test [9] is > 100 µM.

In the case of `O=C1CN=C(C[N+](=O)[O-])c2ccccc21`, the TGI in test [1], in [2], in test [10], in test [3], in test [4] and in test [6] was > 100 µM in each case. Moreover, the TGI in [7] and in test [9] was > 100 µM throughout.

Take `CC(C)(C)[SiH]12(OC(C(F)(F)F)(C(F)(F)F)c3ccccc31)OC(C(F)(F)F)(C(F)(F)F)c1ccccc12`: the TGI in [1] is 6.68 µM; in test [10], 13 µM; in [3], 31.1 µM; in test [4] it was > 100 µM; in [6], 11.1 µM; in test [7], 31 µM. Also, the TGI in test [9] amounted to 13.2 µM.

In the case of `CCCCOC(=O)C1C(c2ccc(Cl)cc2)NC(c2ccc(Cl)cc2)C(C(=O)OCCCC)S1(=O)=O` (stereo not given), the TGI in [1], in test [2], in test [3], in test [4], in [5] and in test [6] was > 100 µM in each case. Further, the TGI in [7], in test [8] and in test [9] was > 100 µM in each case.

Take `OCCN1CN(CCO)CN(c2nc(N3CN(CCO)CN(CCO)C3)nc(N3CN(CCO)CN(CCO)C3)n2)C1`: the GI50 in test [1] was 0.92 ng/mL; in test [6], 0.631 ng/mL. Moreover, the TGI in test [1] was 3.85 ng/mL; in test [2] it was 2.04 ng/mL; in test [4] it was 0.63 ng/mL; in test [6] it was 0.968 ng/mL; in test [9], 0.63 ng/mL.

For the compound `COc1ccc(NC(=O)CCc2cc(-c3ccc(O)c(OC)c3)nc(NC#N)n2)cc1`, the TGI in [1], in test [2], in test [10], in test [3], in test [5] and in [6] was > 100 µM in each case. The TGI in test [7], in test [8] and in test [9] was > 100 µM throughout.

On to `O=c1nc2occc2cn1C1CC(O)C(CO)O1` (stereo not given), for which the TGI in test [1], in test [2], in test [10], in test [4], in test [5] and in test [6] was > 100 µM in each case. For the same compound, the TGI in test [7], in [8] and in test [9] was > 100 µM in each case.

On to `C/C(=C\CCc1ccoc1)CC/C=C(\C)CCCC1=CC(=O)OC1`, for which the GI50 was 5210 nM in test [1]; 17700 nM in test [2]; 4020 nM in test [10]; 9350 nM in test [3]; 2850 nM in test [4]; 9160 nM in test [6]. The GI50 in test [7] was 13700 nM; in test [8] it was 4840 nM. Also, the TGI is 27.8 µM in test [1]; > 100 µM in test [2]; 18.8 µM in test [10]; 22.6 µM in test [3]; 16.7 µM in [4]; 42.2 µM in [6]. Besides, the TGI in test [7] was found to be 31.5 µM; in test [8], 17.2 µM.

Regarding `Cc1ccccc1N1C(=O)/C(=C/c2ccc(N(CCC#N)CCC#N)cc2)N=C1c1cc([N+](=O)[O-])ccc1Cl`, the TGI in test [1], in test [2], in test [3], in test [4], in test [5] and in test [6] was > 100 µM in each case. Further, the TGI in [7] and in test [9] was > 100 µM in each case.

With `C=CC1CC12C(=O)C1OC2(C)C2C(=O)c3cc4ccccc4cc3C(=O)C12` (stereo not given), the GI50 in test [1] is 26900 nM; in [2], 26700 nM; in test [10] it was 33500 nM; in [3] it was 45800 nM; in test [6], 23400 nM; in test [7], 16800 nM. Further, in test [9], the GI50 is 27500 nM. The TGI was > 100 µM in test [1]; > 100 µM in test [2]; > 100 µM in [10]; > 100 µM in test [3]; 83 µM in test [6]; 57.4 µM in test [7]. The TGI in test [9] was > 100 µM.

On to `COc1ccc(N(C)c2ncnc3occ(C)c23)cc1`, for which the GI50 in [1] is < 10 nM; in test [2] it was 10.1 nM; in test [10], < 10 nM; in test [3], < 10 nM; in [4] it was < 10 nM; in test [6], < 10 nM. In addition, the GI50 in test [7] is 38700 nM; in [8] it was < 10 nM; in test [9] it was < 10 nM. The TGI in [2] is > 62.3 µM; in [10], 0.197 µM; in test [3], 58.7 µM; in [4], < 0.01 µM; in test [6], > 100 µM; in test [7], > 100 µM. The values for the TGI in [8] and in [9] were > 100 µM and 16.3 µM, respectively.

`CCC[CH2][Sn]([CH2]CCC)([CH2]CCC)[O]C(=O)CC`: the GI50 in [1] is 135 nM; in [2], 146 nM; in test [10] it was 138 nM; in test [3], 186 nM; in test [4], 169 nM; in test [6], 151 nM. The GI50 in test [7] is 151 nM; in test [9], 130 nM. Besides, the TGI in [1] was 0.281 µM; in test [2], 0.345 µM; in [10] it was 0.294 µM; in [3], 0.37 µM; in [4], 0.506 µM; in test [6], 0.295 µM. The TGI in test [7] is 0.349 µM; in test [9] it was 0.322 µM.

`CC(O)C(N=Cc1ccccc1[O-])C(=O)[O-].CC(O)C(N=Cc1ccccc1[O-])C(=O)[O-].[Co+2]` (stereo not given): the GI50 in [2] was 29900 nM; in test [3], > 100000 nM; in test [4], 94400 nM; in test [5], 20100 nM; in [6], > 100000 nM; in test [7], > 100000 nM. In test [8], the GI50 was > 100000 nM. Besides, the TGI in test [2], in test [3], in [4], in test [5], in [6] and in test [7] was > 100 µM throughout. The TGI in test [8] is > 100 µM.

For `CCOP(=O)(Cc1ccc(CP(=O)(OCC)OCC)n1C)OCC`, the TGI in test [1], in test [2], in [3], in [4], in test [5] and in test [6] was > 100 µM each time. For the same compound, the TGI in test [7], in [8] and in test [9] was > 100 µM in each case.

On to `Ic1ccc(Nc2nc3nonc3nc2Nc2ccc(I)cc2)cc1`, for which the GI50 in test [1] is 156 nM; in [2], 304 nM; in test [10], 135 nM; in test [3], 143 nM; in test [4], 107 nM; in test [5] it was 145 nM. Also, the GI50 in test [6] was 332 nM; in test [7] it was 167 nM; in [9], 265 nM. Moreover, the TGI is > 32 µM in [1]; > 100 µM in test [2]; > 100 µM in test [10]; 0.692 µM in test [3]; 0.574 µM in test [4]; > 100 µM in [5]. Moreover, the TGI was > 100 µM in [6], 0.604 µM in test [7] and > 100 µM in test [9].

As to `CS(=O)(=O)N/N=C/CN1C(=O)c2ccccc2C1=O`, the TGI in test [1], in test [2], in test [10], in test [3], in test [4] and in test [5] was > 100 µM in each case. Also, the TGI in test [6], in test [7] and in [9] was > 100 µM each time.

With `CCCCCCCCCC/C=C/CC(=O)SCCNC(=O)CCNC(=O)[C@@H](O)C(C)(C)COP(=O)(O)OP(=O)(O)OCC1OC(n2cnc3c(N)ncnc32)C(O)C1OP(=O)(O)O` (stereo not given in full), the TGI in test [1], in [2], in test [10], in test [4], in [5] and in [6] was > 10 µM each time. Besides, the TGI in test [7], in test [8] and in [9] was > 10 µM in each case.

As for `CC(C)(C)OC(=O)NCC(=O)OCc1ccccc1`, the TGI in test [1], in [2], in test [10], in test [3], in test [5] and in test [6] was > 100 µM in each case. The TGI in test [7], in test [8] and in [9] was > 100 µM in each case.

Turning to `CC(C)(C)C(=O)OCOP(=O)(OCOC(=O)C(C)(C)C)C1CCCN(O)C1=O` (stereo not given), the GI50 in test [1] is 561 nM; in [2], 441 nM; in [3], 1550 nM; in [4], 308 nM; in test [5], 185 nM; in test [6] it was 350 nM. Further, the values for the GI50 in test [7], in test [8] and in test [9] were 425 nM, 465 nM and 335 nM, respectively. Also, the TGI in [1] stood at 12.9 µM; in test [2], 20.2 µM; in test [3], 8.76 µM; in [4], 1.12 µM; in test [5], 2.3 µM; in test [6], 18.1 µM. The TGI worked out at 5.81 µM in test [7], 12.3 µM in [8] and 8.53 µM in test [9].

As for `S=C(N/N=C/c1ccco1)NC12CC3CC(CC(C3)C1)C2`, the TGI in test [1], in test [2], in test [10], in [3], in [5] and in test [6] was > 100 µM throughout. For the same compound, the TGI in [7], in test [8] and in [9] was > 100 µM in each case.
